Laboratory results taken from patent US11819532B2, “Peptide macrocycles against Acinetobacter baumannii” (Hoffmann-La Roche Inc., priority 2018, dated 2023).

System: A. baumannii ATCC 17978
Assay: 50% growth inhibitory concentration (IC50) determination, antimicrobial susceptibility testing
Assay type: cell-based
Conditions: Acinetobacter baumannii; 50% growth inhibition, A. baumannii strain ATCC17978, Iso-Sensitest medium; read-out: IC50 ATCC17978
Method: The in vitro antimicrobial activity of the compounds was alternatively determined according to the following procedure:
The assay used a 10-points Iso-Sensitest broth medium to measure quantitatively the in vitro activity of the compounds against A. baumannii ATCC 17978.
Stock compounds in DMSO were serially twofold diluted (e.g. range from 50 to 0.097 μM or from 10 to 0.020 μM final concentration) in 384 wells microtiter plates and inoculated with 49 μl the bacterial suspension in Iso-Sensitest medium to have a final cell concentration of ˜5×10^(5)CFU/ml in a final volume/well of 50 μl/well. Microtiter plates were incubated at 35±2° C.
Bacterial cell growth was determined with the measurement of optical density at X=600 nm each 20 minutes over a time course of 16h.
Growth inhibition was calculated during the logarithmic growth of the bacterial cells with determination of the concentration inhibiting 50% (IC50) and 90% (IC90) of the growth.
Table 1 provides the 50% growth inhibitory concentrations (IC50) in micromoles per liter of the compounds of present invention obtained against the A. baumannii strain ATCC17978.

Point of comparison: CN1C(=O)[C@H](CCCN)NC(=O)[C@H](CCN)NCc2cccnc2Sc2c(Cl)ccc(-c3ccc(C(=O)O)cc3)c2CNC(=O)[C@@H]1Cc1c[nH]c2ccccc12 [Example 16.00, 4-[(11S,14S,17S)-11-(2-Aminoethyl)-14-(3-aminopropyl)-25-chloro-17-(1H-indol-3-ylmethyl)-16-methyl-12,15,18-trioxo-2-thia-4,10,13,16,19-pentazatricyclo[19.4.0.03,8]pentacosa-1(25), 3(8), 4,6,21,23-hexaen-22-yl]benzoic Acid], IC50 20 nM. Against it:
- Cc1[nH]c2ccccc2c1C[C@H]1C(=O)NCc2c(cccc2-c2ccc(C(=O)O)cc2)Sc2ncccc2CN[C@@H](CCCN)C(=O)N[C@@H](CCCCN)C(=O)N1C [Example 6.00, 4-[(11S,14S,17S)-14-(4-Aminobutyl)-11-(3-aminopropyl)-16-methyl-17-[(2-methyl-1H-indol-3-yl)methyl]-12,15,18-trioxo-2-thia-4,10,13,16,19-pentazatricyclo[19.4.0.03,8]pentacosa-1(25), 3,5,7,21,23-hexaen-22-yl]benzoic Acid] — within 1.5-fold, 23 nM
- Cc1[nH]c2ccccc2c1C[C@H]1C(=O)NCc2c(-c3ccc(C(=O)O)cc3)ccc(Cl)c2Sc2ncccc2CN[C@@H](CCCN)C(=O)N[C@@H](CCCCN)C(=O)N1C [Example 7.00, 4-[(11S,14S,17S)-14-(4-Aminobutyl)-11-(3-aminopropyl)-25-chloro-16-methyl-17-[(2-methyl-1H-indol-3-yl)methyl]-12,15,18-trioxo-2-thia-4,10,13,16,19-pentazatricyclo[19.4.0.03,8]pentacosa-1(25), 3,5,7,21,23-hexaen-22-yl]benzoic Acid] — within 1.5-fold, 28 nM
- CN1C(=O)[C@H](CCCCN)NC(=O)[C@H](CCCN)NCc2cccnc2Sc2c(F)ccc(-c3ccn(/C=C/C(=O)O)c(=O)c3)c2CNC(=O)[C@@H]1Cc1c[nH]c2ccccc12 [Example 9.02, (E)-3-[4-[(11S,14S,17S)-14-(4-Aminobutyl)-11-(3-aminopropyl)-25-fluoro-17-(1H-indol-3-ylmethyl)-16-methyl-12,15,18-trioxo-2-thia-4,10,13,16,19-pentazatricyclo[19.4.0.03,8]pentacosa-1(25),3(8),4,6,21,23-hexaen-22-yl]-2-oxo-1-pyridyl]prop-2-enoic acid] — 4.4-fold higher, 88 nM
- CN1C(=O)[C@H](CCCN)NC(=O)[C@H](CCCN)NCc2cccnc2Sc2c(Cl)ccc(-c3ccc(C(=O)O)cc3)c2CNC(=O)[C@@H]1Cc1c[nH]c2ccccc12 [Example 12.00, 4-[(11S,14S,17S)-11,14-bis(3-Aminopropyl)-25-chloro-17-(1H-indol-3-ylmethyl)-16-methyl-12,15,18-trioxo-2-thia-4,10,13,16,19-pentazatricyclo[19.4.0.03,8]pentacosa-1(21), 3,5,7,22,24-hexaen-22-yl]benzoic Acid] — within 1.5-fold, 19 nM
- CN1C(=O)[C@H](CCCCN)NC(=O)[C@H](CCN)NCc2cccnc2Sc2c(Cl)ccc(-c3ccc(C(=O)O)cc3)c2CNC(=O)[C@@H]1Cc1c[nH]c2ccccc12 [Example 15.00, 4-[(1 S,14S,7S)-14-(4-Aminobutyl)-11-(2-aminoethyl)-25-chloro-17-(1H-indol-3-ylmethyl)-16-methyl-12,15,18-trioxo-2-thia-4,10,13,16,19-pentazatricyclo[19.4.0.03,8]pentacosa-1(25), 3(8), 4,6,21,23-hexaen-22-yl]benzoic Acid] — the same, 20 nM
- CN1C(=O)[C@H](CCCN)NC(=O)[C@H](CCCN)NCc2cccnc2Sc2c(F)ccc(-c3ccc(C(=O)O)cc3)c2CNC(=O)[C@@H]1Cc1c[nH]c2ccccc12 [Example 14.00, 4-[(1 S,14S,17S)-11,14-bis(3-Aminopropyl)-25-fluoro-17-(H-indol-3-ylmethyl)-16-methyl-12,15,18-trioxo-2-thia-4,10,13,16,19-pentazatricyclo[19.4.0.03,8]pentacosa-1(25), 3(8), 4,6,21,23-hexaen-22-yl]benzoic Acid] — within 1.5-fold, 21 nM
- CN1C(=O)[C@H](CCCCN)NC(=O)[C@H](CCC(N)=O)NCc2cccnc2Sc2c(Cl)ccc(-c3ccc(C(=O)O)cc3)c2CNC(=O)[C@@H]1Cc1c[nH]c2ccccc12 [Example 5.00, 4-[(11S,14S,17S)-14-(4-aminobutyl)-1-(3-amino-3-oxo-propyl)-25-chloro-17-(1H-indol-3-ylmethyl)-16-methyl-12,15,18-trioxo-2-thia-4,10,13,16,19-pentazatricyclo[19.4.0.03,8]pentacosa-1(21), 3,5,7,22,24-hexaen-22-yl]benzoic Acid] — 3.4-fold higher, 67 nM
- CN1C(=O)[C@H](CCC(F)(F)CN)NC(=O)[C@H](CCCN)NCc2cccnc2Sc2c(Cl)ccc(-c3ccc(C(=O)O)cc3)c2CNC(=O)[C@@H]1Cc1c[nH]c2ccccc12 [Example 4.00, 4-[(11S,14S,17S)-14-(4-Amino-3,3-difluoro-butyl)-11-(3-aminopropyl)-25-chloro-17-(1H-indol-3-ylmethyl)-16-methyl-12,15,18-trioxo-2-thia-4,10,13,16,19-pentazatricyclo[19.4.0.03,8]pentacosa-1(21), 3,5,7,22,24-hexaen-22-yl]benzoic Acid] — within 1.5-fold, 19 nM
- CN1C(=O)[C@H](CCN)NC(=O)[C@H](CCCN)NCc2cccnc2Sc2c(Cl)ccc(-c3ccc(C(=O)O)cc3)c2CNC(=O)[C@@H]1Cc1c[nH]c2ccccc12 [Example 13.00, 4-[(11S,14S,17S)-14-(2-Aminoethyl)-11-(3-aminopropyl)-25-chloro-17-(1H-indol-3-ylmethyl)-16-methyl-12,15,18-trioxo-2-thia-4,10,13,16,19-pentazatricyclo[19.4.0.03,8]pentacosa-1(25), 3(8), 4,6,21,23-hexaen-22-yl]benzoic Acid] — the same, 20 nM
- CN1C(=O)[C@H](CCCN)NC(=O)[C@H](CCCN)NCc2cccnc2Sc2cccc(-c3ccc(C(=O)O)cc3)c2CNC(=O)[C@@H]1Cc1c[nH]c2ccccc12 [Example 17.00, 4-[(1 S,14S,17S)-11,14-bis(3-Aminopropyl)-17-(1H-indol-3-ylmethyl)-16-methyl-12,15,18-trioxo-2-thia-4,10,13,16,19-pentazatricyclo[19.4.0.03,8]pentacosa-1(25), 3 (8),4,6,21,23-hexaen-22-yl]benzoic Acid] — 3.8-fold higher, 75 nM
- CN1C(=O)[C@H](CCCCN)NC(=O)[C@H](CCCN)NCc2nccnc2Sc2c(Cl)ccc(-c3ccc(C(=O)O)cc3)c2CNC(=O)[C@@H]1Cc1c[nH]c2ccccc12 [Example 8.00, 4-[(11S,14S,17S)-14-(4-Aminobutyl)-11-(3-aminopropyl)-25-chloro-17-(1H-indol-3-ylmethyl)-16-methyl-12,15,18-trioxo-2-thia-4,7,10,13,16,19-hexazatricyclo[19.4.0.03,8]pentacosa-1(21), 3,5,7,22,24-hexaen-22-yl]benzoic Acid] — the same, 20 nM
- CN1C(=O)[C@H](CCCCN)NC(=O)[C@H](CCCN)NCc2cccnc2Sc2c(Cl)ccc(-c3ccc(C(=O)O)nc3)c2CNC(=O)[C@@H]1Cc1c[nH]c2ccccc12 [Example 2.02, 5-[(11S,14S,17S)-14-(4-aminobutyl)-11-(3-aminopropyl)-25-chloro-17-(1H-indo1-3-ylmethyl)-16-methyl-12,15,18-trioxo-2-thia-4,10,13,16,19-pentazatricyclo[19.4.0.03,8]pentacosa-1(25),3,5,7,21,23-hexaen-22-yl]pyridine-2-carboxylic acid] — within 1.5-fold, 29 nM
- CN1C(=O)[C@H](CCCCN)NC(=O)[C@H](CCCN)NCc2cccnc2Sc2c(Cl)ccc(-c3ccc(C(=O)O)c(O)c3)c2CNC(=O)[C@@H]1Cc1c[nH]c2ccccc12 [Example 3.00, 4-[(1 S,14S,17S)-14-(4-Aminobutyl)-1-(3-aminopropyl)-25-chloro-17-(1H-indol-3-ylmethyl)-16-methyl-12,15,18-trioxo-2-thia-4,10,13,16,19-pentazatricyclo[19.4.0.03,8]pentacosa-1(21), 3(8), 4,6,22,24-hexaen-22-yl]-2-hydroxy-benzoic Acid] — 1.9-fold higher, 39 nM

System: not listed separately
Assay: Plasma precipitation screening assay
Design: species or system rat
Conditions: Wistar (Hanbrl:Wist SPF), rat, 10 min
Method: An aliquot (10 μL) of compound solubilized in physiological buffer or the formulation used for its parenteral administration in vivo, and of various dilutions thereof in phosphate-buffered saline (PBS), is mixed 1:1 with rat plasma. After 10 minutes incubation at room temperature the UV-absorption of the mixtures is measured and compared to absorption of blank plasma or plasma with vehicle solution. A significant (often concentration dependent) increase of absorption is indicative of precipitation.
Whole blood is obtained from WISTAR rats (Hanbrl:Wist SPF) under terminal anaesthesia after intraperitoneal injection of a pentobarbital solution (from animals euthanized for collection of tissue for other experimental purposes). Blood is collected in 1.2 mL of Heparin S-Monovette tubes (Sarstedt) for the preparation of heparin plasma.
The tubes are then centrifuged for 5 min at 5200 g at room temperature to isolate the plasma supernatant. The plasma is used in the assay within 48 h of collection (storage at 4° C.).
Test compounds are received as powder or formulated. When obtained as powder, they are solubilized in 0.9% aq. sodium chloride solution in order to get the highest indicated concentration to be tested. The solubility is visually checked and the solutions are filtered using 0.45 PVDF hydrophilic filters (Durapore®, Darmstadt, Germany), to remove possible solid impurities. pH of this initial solution might be measured in the filtered stock solutions, before proceeding to prepare a compound dilution series in PBS (1:1-dilution steps).
The assay is conducted in 384-well plates. 10 μL of rat plasma is added to 10 μL of the various compound solutions. The assay is performed in duplicate. 10 μL of vehicle (0.9% aq. sodium chloride solution, PBS) added to the plasma is used as a negative control. The absorption is measured at 362 nm.
Raw data obtained are absorbance data. The difference between absorbance of the sample and mean absorbance of vehicle is calculated. The minimal effect concentration (MEC) is defined as the lowest concentration giving an absorbance difference, OD362≥0.05.

In the case of Cc1[nH]c2ccccc2c1C[C@H]1C(=O)NCc2c(cccc2-c2ccc(C(=O)O)cc2)Sc2ncccc2CN[C@@H](CCCN)C(=O)N[C@@H](CCCCN)C(=O)N1C [Example 6.00, 4-[(11S,14S,17S)-14-(4-Aminobutyl)-11-(3-aminopropyl)-16-methyl-17-[(2-methyl-1H-indol-3-yl)methyl]-12,15,18-trioxo-2-thia-4,10,13,16,19-pentazatricyclo[19.4.0.03,8]pentacosa-1(25), 3,5,7,21,23-hexaen-22-yl]benzoic Acid], the “Plasma precipitation MEC” value is reported as 1090 µmol/L.
